Assay results as given in patent US10736910B2, “Treatment of autophagy-based disorders and related pharmaceutical compositions, diagnostic and screening assays and kits” (STC.UNM, priority 2012, dated 2020).
Square brackets hold non-standard residues; d marks the D form. Peptide text beside a SMILES is read from it. Nle = CCCC[C@H](N)C(=O)O

Columns and labels:
[1] = tested on: Atg5fl/fl LysM-Cre− and Cre+ bone marrow-derived macrophages (BMM); assay: IL-1α release (ELISA) from LPS- and IFN-γ-stimulated bone marrow-derived macrophages; format: cell-based, murine; settings: 12 h; for IL-1α secreted: autophagy-competent Atg5fl/fl LysM-Cre− BMM, LPS and IFN-γ stimulated, 50 μg/ml rapamycin, 10 mM 3-MA or 100 nM Bafilomycin A1
Excerpt: FIG. 5. Excess cytokine secretion is a cell-autonomous property of autophagy-deficient macrophages and IL-1α hypersecretion by Atg5^fl/fl LysM-Cre^+ macrophages depends on reactive oxygen intermediates and calpain. (A-C) In vitro cytokine (IL-1α, CXCL1, and IL-12p70) release (ELISA) from LPS- and IFN-γ-stimulated Atg5^fl/fl LysM-Cre^− and Cre^+ bone marrow-derived macrophages (BMM). (D) CXCL1 released from LPS- and IFN-γ-stimulated Atg5^fl/fl LysM-Cre^+ BMM in the absence of presence of IL-1RA ([…]). (E) Fraction of 7-AAD^+ BMM after LPS and IFN-γ stimulation in vitro. (F,G) IL-1α and CXCL1 levels (ELISA) in lung homogenates of uninfected Atg5^fl/fl LysM-Cre^− and Cre^+ mice. (H,I) IL-1α (ELISA) released from LPS- and IFN-γ stimulated Atg5^fl/fl LysM-Cre BMM in the presence of 50 μg/ml rapamycin (Rap), 10 mM 3-MA, or 100 nM Bafilomycin A1 (Baf A1) after 12 h of stimulation. (J) IL-1α secretion during inflammasome activation. Atg5^fl/fl LysM-Cre^− and Cre^+ BMM were pretreated overnight with LPS (100 ng/ml) then stimulated for 1 h in the absence or presence of the inflammasome agonist silica (250 μg/ml) in EBSS. (K) IL-1α secretion in the presence of caspase 1 inhibitor YVAD. Atg5^fl/fl LysM-Cre^− and Cre^+ BMM were pretreated overnight with LPS (100 ng/ml) then stimulated for 1 h in the absence or presence of YVAD (50 μM) during inflammasome activation with silica as in J. (L) Effects of caspase 1 siRNA knockdown (immunoblot, left) on IL-1α release (graph, right) from Atg5^fl/fl LysM-Cre^+ BMM. Graph (center), IL-1α release from LPS-stimulated siRNA-treated Atg5^fl/fl LysM-Cre^+ BMM in full media or EBSS (Starv). Graph (right), same as middle graph in full medium only. Casp 1, caspase 1 siRNA: Scr, scrambled, control siRNA. (M) IL-1α release from LPS- and IFN-γ-stimulated Atg5^fl/fl LysM-Cre^+ BMM knocked down with siRNA for inflammasome components ASC and NLRP3. (N,O) ROS inhibition and IL-1 secretion: IL-1α (N) and IL-1β (0) released (ELISA) from LPS- and IFN-γ-stimulated Atg5^fl/fl LysM-Cre^− and Cre^+ BMM in the absence or presence of ROS antagonist APDC (50 μM) after 12 h of incubation. (P) Calpain and […] hypersecretion phenotype. IL-1β (ELISA) released from LPS- and IFN-γ stimulated Atg5^fl/fl LysM-Cre^− and Cre^+ BMM in the absence or presence of calpain inhibitor ALLN (100 μM) after 12 h of stimulation. Data, mean±SE, *p<0.05, **p<0.01, † p>0.05 (t test; n≥3).
(§1) All cells were pretreated with Stain FcX (anti-CD16/32) (Biolegend) before being stained for. […] Caspase 1 activity was measured by flow cytometry using the FLICA caspase 1 reagent (FAM-YVAD-FMK) (Immunochemistry Technologies). […] Secreted cytokines (IL-1αIL-1β CXCL1, CXCL2 and IL-12p70) were measured by ELISA (R&D Systems). […]

BMM = assay: HMGB1 extracellular release from BMM (immunoblot of culture supernatants); format: cell-based, murine; settings: BMM stimulated with nigericin; largely diminished in Atg5-deficient BMM
Excerpt: We tested whether induction of autophagy affected other proteins not connected to proteolytic processing in the inflammasome, such as HMGB1 (high mobility group box 1 protein). HMGB1 is a major pro-inflammatory alarmin or DAMP (damage-associated molecular pattern) normally present in the nucleus (34A). This chromatin-associated nuclear protein (with additional intracellular and extracellular signaling roles), upon exposure to inputs including those that induce autophagy (63A,64A), undergoes a complex set of biochemical and localization changes. In the process, it first translocates from the nucleus into the cytoplasm and then is released from the cytoplasm to act in tissue remodeling signaling (when acting alone) or as an inflammatory mediator (when combined with bacterial agonists or other alarmins such as IL-1β). […] HMGB1, along with additional unconventional substrates, depends on inflammasome for secretion although the protein itself is not subjected to proteolytic processing by caspase 1 (65A-68A).

Atg5fl/fl LysM-Cre+ BMM = assay: CXCL1 release (ELISA) from LPS- and IFN-γ-stimulated Atg5fl/fl LysM-Cre+ BMM; format: cell-based, murine; parameters: dose or concentration left out as unconfirmed; settings: IL-1RA
Excerpt: (§2) FIG. 5. Excess cytokine secretion is a cell-autonomous property of autophagy-deficient macrophages and IL-1α hypersecretion by Atg5^fl/fl LysM-Cre^+ macrophages depends on reactive oxygen intermediates and calpain. (A-C) In vitro cytokine (IL-1α, CXCL1, and IL-12p70) release (ELISA) from LPS- and IFN-γ-stimulated Atg5^fl/fl LysM-Cre^− and Cre^+ bone marrow-derived macrophages (BMM). (D) CXCL1 released from LPS- and IFN-γ-stimulated Atg5^fl/fl LysM-Cre^+ BMM in the absence of presence of IL-1RA ([…]). (E) Fraction of 7-AAD^+ BMM after LPS and IFN-γ stimulation in vitro. (F,G) IL-1α and CXCL1 levels (ELISA) in lung homogenates of uninfected Atg5^fl/fl LysM-Cre^− and Cre^+ mice. (H,I) IL-1α (ELISA) released from LPS- and IFN-γ stimulated Atg5^fl/fl LysM-Cre BMM in the presence of 50 μg/ml rapamycin (Rap), 10 mM 3-MA, or 100 nM Bafilomycin A1 (Baf A1) after 12 h of stimulation. (J) IL-1α secretion during inflammasome activation. […]
as §1

[2] = tested on: Atg5fl/fl LysM-Cre− and Cre+ bone marrow-derived macrophages (BMM); assay: IL-1β release (ELISA) from LPS- and IFN-γ-stimulated bone marrow-derived macrophages; format: cell-based, murine; settings: APDC 50 μM, 12 h
Excerpt: as §2
FIG. 10. […] IL-1β secretion was examined in autophagy-competent Atg5fl/fl LysM-CreBMM and IL-1α secretion was measured in autophagy-deficient Atg5fl/fl LysM-Cre+ BMM. […]
All cells were pretreated with Stain FcX (anti-CD16/32) (Biolegend) before being stained for. […] Caspase 1 activity was measured by flow cytometry using the FLICA caspase 1 reagent (FAM-YVAD-FMK) (Immunochemistry Technologies). […]

TBK-1 = assay: IL-1β secretion with pharmacological TBK-1 inhibition (preliminary studies); format: cell-based; settings: preliminary studies with TBK-1 inhibitor
naïve CD4 T cells = assay: Ex vivo Th17 polarization of naïve CD4 T cells (intracellular IL-17A, flow cytometry); format: cell-based, mice; settings: 20 ng/ml IL-1α in combination with 5 ng/ml TGF-β and 20 ng/ml IL-6, day 4
Protocol: FIG. 9. T cell activation state and IL-1α role in T cell IL-17 polarization. (A,B) CD44 and CD25 expression on CD4 T cells from lungs of uninfected Atg5fl/fl LysM-Cre and Cre+mice. (C-F) Intracellular IL-17A production (day 4; release blocked with monensin) by naïve CD4 T cells polarized in the presence of cytokine cocktails: 5 ng/ml TGF-β and 20 ng/ml IL-6, plus 20 ng/ml IL-1α or 20 ng/ml IL-1β. Dot plot (panel C), levels of IL-17A in unstimulated cells (starting material). Histograms (D,E), IL-17A in naïve CD4 T cells polarized in the presence of TGF-β, IL-6 and IL-1α (panel D) or TGF-β, IL-6 and IL-1β (panel E). (F) Percent of IL-17A+CD4 T cells under respective polarizing conditions. Data: mean±SE; † p>0.05 (t test; n≥3).
Single cell suspensions from whole lungs isolated from naïve Atg5^fl/fl LysM-Cre^+ and Cre^− mice were cultured in RPMI 10% FBS and Cell Stimulation Cocktail (phorbol 12-myristate 13-acetate and ionomycin plus brefeldin A and monensin; eBioscience) for 4 h and analyzed by flow cytometry. […] After 4 days, cells were stimulated with 1× Cell Stimulation Cocktail in the presence of protein transport inhibitors for 5 hours at 37° C. and analyzed by flow cytometry.

Molecule: CO/C1=C\C(C)=C\[C@@H](C)[C@@H](O)[C@@H](C)C/C(C)=C/C=C/[C@H](OC)[C@@H]([C@@H](C)[C@@H](O)[C@H](C)[C@@]2(O)C[C@@H](O)[C@H](C)[C@@H](C(C)C)O2)OC1=O [bafilomycin A1]
- IL-1α secreted [1]: An effect similar to 3MA

Molecule: CO[C@@H]1C[C@@H](C[C@H]2CC[C@H](C)[C@H]([C@@H](C)C(=O)O)O2)O[C@]2(O[C@](C)([C@H]3CC[C@@](C)([C@@H]4O[C@@H]([C@H]5O[C@@](O)(CO)[C@H](C)C[C@@H]5C)C[C@@H]4C)O3)C[C@H]2C)[C@@H]1C [nigericin]
- HMGB1 in culture supernatants (BMM): An HMGB1 band was detected

Molecule: Cn1cnc(N)c2ncnc1-2 [3MA, 3-methyladenine]
- IL-1α secreted [1]: significantly increased

Molecule: CCCC[C@@H](C=O)NC(=O)[C@H](CC(C)C)NC(=O)[C@H](CC(C)C)NC(C)=O [ALLN] (Ac-Leu-Leu-[Nle]-aldehyde)
- excess IL-1α production ([1]; LPS- and IFN-γ-stimulated Atg5fl/fl LysM-Cre+ BMM, ALLN 100 μM): completely inhibited the excess IL-1α production

Molecule: IL-1RA: IL-1 receptor antagonist (R&D Systems)
- CXCL1 levels (Atg5fl/fl LysM-Cre+ BMM): lowered CXCL1 levels

Molecule: N[C@@]1(C(=O)O)CN[C@@H](C(=O)O)C1 [APDC, (2R,4R)-4-aminopyrrolidine-2,4-dicarboxylate]
- excessive IL-1β release [2]: inhibited excessive IL-1β release
- excessive IL-1α release ([1]; LPS- and IFN-γ-stimulated Atg5fl/fl LysM-Cre+ BMM, APDC 50 μM): abrogated excessive IL-1α

Molecule: O=C(NCCCNc1nc(Nc2cccc(NC(=O)N3CCCC3)c2)ncc1I)c1cccs1 [BX795]
- IL-1β secretion (TBK-1): reduced

B1: IL-1α: cytokine (R&D Systems) added at 20 ng/ml for T cell polarization (protein, UniProt P01583 113-271, looked up)
Interleukin-1 alpha: SAPFSFLSNVKYNFMRIIKYEFILNDALNQSIIRANDQYLTAAALHNLDEAVKFDMGAYKSSKDDAKITVILRISKTQLYVTAQDEDQPVLLKEMPEIPKTITGSETNLLFFWETHGTKNYFTSVAHPNLFIATKQDYWVCLAGGPPSITDFQILENQA
- Th17 polarization (IL-17A+ CD4 T cells) (naïve CD4 T cells): showed a capacity to promote Th17 polarization
